In patent US11999806B2, “Broad-spectrum polypeptide against enterovirus and application thereof” (WUHAN INSTITUTE OF VIROLOGY, CHINESE ACADEMY OF SCIENCES, priority 2018, dated 2024):
“And” between values parts separate entries of the source, which are not always exact repeats. Equal values may be shown once. No end group written: not given here.

Experiments:
[1] = Cytotoxicity by CCK-8 in RD cells; type: cell-based; settings: human; for CC50 at 24 h: Table 1 summary, cell line not given, read-out: CC50
Description: (§1) The experiment was performed as follows. • (1) RD cells were plated in a 96-well plate at 100 μl per well. • (2) After the cells reached 70%-80% confluence, the MEM medium containing 10% serum was replaced with a MEM medium containing 2% serum. Then, polypeptide P2 was added to generate gradient concentrations of 0.01 μM, 0.1 μM, 1 μM, 10 μM, and 100 μM (final concentration), respectively. • (3) The test was performed 24 hours after the addition of the polypeptide, and 10 μl of viable cell detection reagent CCK-8 was added to each well and mixed well. • (4) The plate was incubated at 37° C. for 2 h. • (5) The absorbance value at OD450 was measured with a microplate reader.
as §1, with “P1” for “P2”, “concentrations),” for “concentration),”
(§2) RD cells were used to test the antiviral effect of polypeptide P1. When RD cells reached 80% confluence, polypeptide P1 was added at concentrations of 0 μM (control group), 0.01 μM, 0.1 μM, 1 μM, 10 μM, and 100 μM, respectively. Three parallel wells were used for each concentration. The test was carried out 24 hours later, and the cell viability was detected using the CCK-8 kit.
as §1, with “3A-TAT-EP” for “P2”, “concentrations),” for “concentration),”
(§3) RD cells were used to test the antiviral effect of polypeptide 3A-TAT-EP. When RD cells reached 80% confluence, polypeptide 3A-TAT-EP was added at concentrations of 0 μM (control group), 0.01 μM, 0.1 μM, 1 μM, 10 μM, and 100 μM, respectively. Three parallel wells were used for each concentration. The test was carried out 24 hours later, and the cell viability was detected using the CCK-8 kit.
as §1, with “Then, 3A-EP-DRI or 3A-EP-PEG4-PA” for “Then, polypeptide P2”, “and 50” for “and 100”, “(final concentrations),” for “(final concentration),”
(§4) RD cells were used to test the antiviral effect of polypeptides 3A-EP-DRI and 3A-EP-PEG4-PA. When RD cells reached 80% confluence, polypeptide 3A-EP-DRI or 3A-EP-PEG4-PA was added at concentrations of 0 μM (control group), 0.01 μM, 0.1 μM, 1 μM, 10 μM, and 50 μM, respectively. Three parallel wells were used for each concentration. The test was carried out 24 hours later, and the cell viability was detected using the CCK-8 kit. […]

RD cells = test: Cytotoxicity by CCK-8 in RD cells; type: cell-based; settings: RD cells; for Cell viability (%): 24 h, CCK-8 4 h (Example 18); for cytotoxicity, result in words: CCK-8, 24 h
Description: as §1
as §1, with “P1” for “P2”, “concentrations),” for “concentration),”
as §2
as §1, with “3A-TAT-EP” for “P2”, “concentrations),” for “concentration),”
as §3
as §1, with “Then, 3A-EP-DRI or 3A-EP-PEG4-PA” for “Then, polypeptide P2”, “and 50” for “and 100”, “(final concentrations),” for “(final concentration),”
as §4

[2] = Cytotoxicity by CCK-8 in Vero cells; type: cell-based; settings: 24 h, read-out: Cell viability (%)
Description: (§5) The experiment was performed as follows. • (1) Vero cells were plated in a 96-well plate at 100 μl per well. • (2) After the cells reached 70%-80% confluence, the MEM medium containing 10% serum was replaced with a MEM medium containing 2% serum. Then, polypeptide BP8, BP10 or BP15 was added to generate gradient concentrations of […], […], 12.5 μM, 25 μM, 50 μM, 100 μM, and 200 μM (final concentrations), respectively. • (3) The samples were collected 24 hours after the addition of the polypeptide, and 10 μl of live cell detection reagent CCK-8 was added to each well and mixed well. • (4) The plate was placed at 37° C. for 4 h. • (5) The absorbance value at OD450 was measured with a microplate reader.

Vero cells = test: Cytotoxicity by CCK-8 in Vero cells; type: cell-based; settings: for Cell viability (%): 24 h; for cytotoxicity, result in words: CCK-8, 24 h
Description: as §5

CVB5 = test: Anti-CVB5 effect in RD cells, qRT-PCR; type: cell-based, Coxsackievirus B5; settings: Example 20, read-out: IC50 against CVB5
Description: • (1) […] were plated in a 24-well cell plate. • (2) After the cells reached 70%-80% confluence, the MEM medium containing 10% serum was replaced with a MEM medium containing 2% serum (0.5 ml/well).

[3] = RD cells, 24 h, CCK-8 4 h (Example 18), read-out: Cell viability (%)

Compound | viability at 24 h, 3.0625 µM [1, 3] | viability at 24 h, 6.125 µM [1, 3] | viability at 24 h, 12.5 µM [1, 3] | viability at 24 h, 25 µM [1, 3] | viability at 24 h, 50 µM [1, 3] | viability at 24 h, 100 µM [1, 3] | CC50 at 24 h [1] | Cell viability (%) (RD cells; 3.0625 μM) | Cell viability (%) (RD cells; 6.125 μM) | Cell viability (%) (RD cells; 12.5 μM) | Cell viability (%) (RD cells; 25 μM) | Cell viability (%) (RD cells; 50 μM) | Cell viability (%) (RD cells; 100 μM) | cytotoxicity, result in words (RD cells) | viability at 24 h, 3.0625 µM [2] | viability at 24 h, 6.125 µM [2] | viability at 24 h, 12.5 µM [2] | viability at 24 h, 25 µM [2] | viability at 24 h, 50 µM [2] | viability at 24 h, 100 µM [2] | other results
YGRKKRRQRRRGSGEAVREYCKEK [BP10] | 97.7% | 98.5% | 94.8% | 109% | 109% | 107% | > 200 µM | 98.99% and 103.5309% | 93.25% and 92.62% | 97.35% and 100.8827% | 99.56% and 96.2169% | 115.4477% and 116.3934% | 112.232% and 114.3758% | not toxic to cells within 200 μM | 107% | 119% | 122% | 117% | 109% | 92.8% | viability at 24 h, 200 µM ([1]; RD cells, 200 μM, 24 h, CCK-8 4 h (Example 18), read-out: Cell viability (%)): 79.7%; Cell viability (%) (RD cells; 200 μM): 85.18% and 97.54%; viability at 24 h, 200 µM [2]: 83.1%; Cell viability (%) (Vero cells; 3.0625 μM): 106.2952% and 107.1965%; Cell viability (%) (Vero cells; 6.125 μM): 119.236% and 118.9785%; Cell viability (%) (Vero cells; 12.5 μM): 120.8456% and 123.9359%; Cell viability (%) (Vero cells; 25 μM): 117.3689% and 116.0169%; Cell viability (%) (Vero cells; 50 μM): 118.399% and 120.0086%; Cell viability (%) (Vero cells; 100 μM): 92.32% and 94.06%; Cell viability (%) (Vero cells; 200 μM): 86.72% and 82.22%; cytotoxicity, result in words (Vero cells): not toxic to cells within 200 μM; IC50 (CVB5): 1.33 µM
CC(C)C[C@H](NC(=O)[C@H](Cc1c[nH]c2ccccc12)NC(=O)CNC(=O)[C@H](CCCCN)NC(=O)[C@H](CCC(=O)O)NC(=O)[C@H](CCCCN)NC(=O)[C@H](CS)NC(=O)[C@H](Cc1ccc(O)cc1)NC(=O)[C@H](CCC(=O)O)NC(=O)[C@H](CCCNC(=N)N)NC(=O)[C@@H](NC(=O)[C@H](C)NC(=O)[C@H](CCC(=O)O)NC(=O)CNC(=O)[C@H](CO)NC(=O)CNC(=O)[C@H](CCCNC(=N)N)NC(=O)[C@H](CCCNC(=N)N)NC(=O)[C@H](CCCNC(=N)N)NC(=O)[C@H](CCC(N)=O)NC(=O)[C@H](CCCNC(=N)N)NC(=O)[C@H](CCCNC(=N)N)NC(=O)[C@H](CCCCN)NC(=O)[C@H](CCCCN)NC(=O)[C@H](CCCNC(=N)N)NC(=O)CNC(=O)[C@@H](N)Cc1ccc(O)cc1)C(C)C)C(=O)N[C@H](C(=O)N1CCC[C@H]1C(=O)O)C(C)C [BP15] | 91% | 104% | 96.7% | 96.7% | 107% | 96.3% | > 100 µM | 85.77% and 91.09% | 105.7678% and 97.72% | 98.76% and 95.25% | 92.912% and 95.05% | 103.6251% and 100.2489% | 99.4048% and 104.9237% | not toxic to cells within 100 μM | 108% | 125% | 122% | 116% | 112% | 75.8% | viability at 24 h, 200 µM [2]: 20%; Cell viability (%) (Vero cells; 3.0625 μM): 105.9733% and 109.128%; Cell viability (%) (Vero cells; 6.125 μM): 127.0907% and 124.0647%; Cell viability (%) (Vero cells; 12.5 μM): 120.3949% and 122.777%; Cell viability (%) (Vero cells; 25 μM): 111.0595% and 118.2059%; Cell viability (%) (Vero cells; 50 μM): 109.4499% and 102.9473%; Cell viability (%) (Vero cells; 100 μM): 87.11% and 76.81%; Cell viability (%) (Vero cells; 200 μM): 13.65% and 13.13% and 13.4559%; cytotoxicity, result in words (Vero cells): not toxic to cells within 100 μM; IC50 (CVB5): 6.76 µM
